Measurements from paper PMC5218480 (PLoS ONE, 2017).

Tested on: MV-4-11 cells
Assay: Gene expression microarray analysis (Affymetrix PrimeView) and GSEA
Format: cell-based, human
Design: RFU PODN (11730768_x_at) / Fold change /veh PODN (11730768_x_at) / RFU LINC00158 (11744669_a_at) / Fold change /veh LINC00158 (11744669_a_at) / RFU DUSP10 (11751237_a_at) / Fold change /veh DUSP10 (11751237_a_at) / RFU ID3 (11757404_x_at) / Fold change /veh ID3 (11757404_x_at) / RFU PLEKHG5 (11737974_s_at) / Fold change /veh PLEKHG5 (11737974_s_at) / RFU LRRC4B (11730491_at) / Fold change /veh LRRC4B (11730491_at) / RFU GIMAP4 (11747438_a_at) / Fold change /veh GIMAP4 (11747438_a_at) / RFU KRT8 (11758183_x_at) / Fold change /veh KRT8 (11758183_x_at) / RFU CNN1 (11734310_a_at) / Fold change /veh CNN1 (11734310_a_at) / RFU VPS37D (11726825_at) / Fold change /veh VPS37D (11726825_at) / RFU C10orf10 (11716522_x_at) / Fold change /veh C10orf10 (11716522_x_at) / RFU KIR2DL2 /// KIR2DL4 /// KIR2DL5A /// KIR2DL5B /// KIR2DS1 /// KIR2DS2 /// KIR2DS3 /// KIR2DS4 /// KIR3DL3 /// KIR3DL3 /// KIR3DS1 (11738374_at) / Fold change /veh KIR2DL2 /// KIR2DL4 /// KIR2DL5A /// KIR2DL5B /// KIR2DS1 /// KIR2DS2 /// KIR2DS3 /// KIR2DS4 /// KIR3DL3 /// KIR3DL3 /// KIR3DS1 (11738374_at) / RFU C1QL1 (11718748_at) / Fold change /veh C1QL1 (11718748_at) / RFU TMPRSS4 (11747572_a_at) / Fold change /veh TMPRSS4 (11747572_a_at) / RFU HAMP (11756126_x_at) / Fold change /veh HAMP (11756126_x_at) / RFU RNFT2 (11725882_a_at) / Fold change /veh RNFT2 (11725882_a_at) / RFU NR4A2 (11747474_a_at) / Fold change /veh NR4A2 (11747474_a_at) / RFU ABCC12 (11746883_a_at) / Fold change /veh ABCC12 (11746883_a_at) / RFU TMEM136 (11760407_x_at) / Fold change /veh TMEM136 (11760407_x_at) / RFU CLDN22 /// WWC2 (11732394_at) / Fold change /veh CLDN22 /// WWC2 (11732394_at) / RFU HLA-DPB1 (11760878_x_at) / Fold change /veh HLA-DPB1 (11760878_x_at) / RFU SPINT1 (11716480_a_at) / Fold change /veh SPINT1 (11716480_a_at) / RFU GAP43 (11754022_s_at) / Fold change /veh GAP43 (11754022_s_at) / RFU A4GNT (11735810_at) / Fold change /veh A4GNT (11735810_at) / RFU PRB3 (11715151_x_at) / Fold change /veh PRB3 (11715151_x_at) / RFU TUBB4B (11761932_at) / Fold change /veh TUBB4B (11761932_at) / RFU CAPN14 (11732068_a_at) / Fold change /veh CAPN14 (11732068_a_at) / RFU TMCC2 (11721928_a_at) / Fold change /veh TMCC2 (11721928_a_at) / RFU IRGQ (11745062_a_at) / Fold change /veh IRGQ (11745062_a_at) / RFU FAM174B (11720279_a_at) / Fold change /veh FAM174B (11720279_a_at) / RFU TMPRSS4 (11748680_a_at) / Fold change /veh TMPRSS4 (11748680_a_at) / RFU FAM212B (11763350_a_at) / Fold change /veh FAM212B (11763350_a_at) / RFU PLEKHG5 (11743358_a_at) / Fold change /veh PLEKHG5 (11743358_a_at) / RFU ZSCAN30 (11745921_a_at) / Fold change /veh ZSCAN30 (11745921_a_at) / RFU CMKLR1 (11741424_a_at) / Fold change /veh CMKLR1 (11741424_a_at) / RFU LOC101060620 /// MAPK8IP1 (11723275_at) / Fold change /veh LOC101060620 /// MAPK8IP1 (11723275_at) / RFU SPTSSB (11747773_x_at) / Fold change /veh SPTSSB (11747773_x_at) / RFU PRSS12 (11739890_at) / Fold change /veh PRSS12 (11739890_at) / RFU BIN1 (11741810_x_at) / Fold change /veh BIN1 (11741810_x_at) / RFU WNT11 (11732464_a_at) / Fold change /veh WNT11 (11732464_a_at) / RFU C10orf10 (11716521_a_at) / Fold change /veh C10orf10 (11716521_a_at) / RFU C5orf56 (11738089_at) / Fold change /veh C5orf56 (11738089_at) / RFU CYB561 (11721691_x_at) / Fold change /veh CYB561 (11721691_x_at) / RFU ANKRD19P (11752326_a_at) / Fold change /veh ANKRD19P (11752326_a_at) / RFU OR2T12 /// OR2T33 /// OR2T8 (11738714_s_at) / Fold change /veh OR2T12 /// OR2T33 /// OR2T8 (11738714_s_at) / RFU VCAN (11748164_a_at) / Fold change /veh VCAN (11748164_a_at) / RFU JSRP1 (11732532_at) / Fold change /veh JSRP1 (11732532_at) / RFU KRTAP10-11 (11738290_x_at) / Fold change /veh KRTAP10-11 (11738290_x_at) / RFU MYO3A (11730013_a_at) / Fold change /veh MYO3A (11730013_a_at) / RFU EBF3 (11725865_a_at) / Fold change /veh EBF3 (11725865_a_at) / RFU CAMK2N1 (11719241_x_at) / Fold change /veh CAMK2N1 (11719241_x_at) / RFU C5orf56 (11738088_a_at) / Fold change /veh C5orf56 (11738088_a_at) / RFU OLFML3 (11715873_a_at) / Fold change /veh OLFML3 (11715873_a_at) / RFU LOC100653217 /// NTM (11731650_a_at) / Fold change /veh LOC100653217 /// NTM (11731650_a_at) / RFU MAPK11 (11762145_a_at) / Fold change /veh MAPK11 (11762145_a_at) / RFU FIZ1 (11724087_x_at) / Fold change /veh FIZ1 (11724087_x_at) / RFU OASL (11726364_x_at) / Fold change /veh OASL (11726364_x_at) / RFU SOX15 (11748057_x_at) / Fold change /veh SOX15 (11748057_x_at) / RFU CD79A (11719716_a_at) / Fold change /veh CD79A (11719716_a_at) / RFU HIST1H1D (11736915_at) / Fold change /veh HIST1H1D (11736915_at) / RFU CASKIN2 (11723855_a_at) / Fold change /veh CASKIN2 (11723855_a_at) / RFU LOC730098 (11760151_x_at) / Fold change /veh LOC730098 (11760151_x_at) / RFU OR4N2 (11742367_at) / Fold change /veh OR4N2 (11742367_at) / RFU PRRT2 (11749266_a_at) / Fold change /veh PRRT2 (11749266_a_at) / RFU SNX32 (11753110_a_at) / Fold change /veh SNX32 (11753110_a_at) / RFU CDHR5 (11726645_a_at) / Fold change /veh CDHR5 (11726645_a_at) / RFU RCAN1 (11760418_a_at) / Fold change /veh RCAN1 (11760418_a_at) / RFU FAM167A (11723789_a_at) / Fold change /veh FAM167A (11723789_a_at) / RFU FAM26E (11764081_at) / Fold change /veh FAM26E (11764081_at) / RFU ISYNA1 (11749810_s_at) / Fold change /veh ISYNA1 (11749810_s_at) / RFU ACY1 (11761880_at) / Fold change /veh ACY1 (11761880_at) / RFU 11764098_at / Fold change /veh 11764098_at / RFU SAMD14 (11745864_x_at) / Fold change /veh SAMD14 (11745864_x_at) / RFU NPB (11741838_a_at) / Fold change /veh NPB (11741838_a_at) / RFU TMPRSS6 (11731388_a_at) / Fold change /veh TMPRSS6 (11731388_a_at) / RFU KRTAP10-2 (11738614_at) / Fold change /veh KRTAP10-2 (11738614_at) / RFU ARHGAP8 /// PRR5-ARHGAP8 (11727945_x_at) / Fold change /veh ARHGAP8 /// PRR5-ARHGAP8 (11727945_x_at) / RFU KRTAP5-7 /// NADSYN1 (11734609_at) / Fold change /veh KRTAP5-7 /// NADSYN1 (11734609_at) / RFU RASL12 (11751679_a_at) / Fold change /veh RASL12 (11751679_a_at) / RFU CDKN2B (11736163_a_at) / Fold change /veh CDKN2B (11736163_a_at) / RFU PRF1 (11729649_at) / Fold change /veh PRF1 (11729649_at) / RFU, ZNF638 /// ZNF638-IT1 / Fold change vs veh, ZNF638 /// ZNF638-IT1 / RFU, PANK3 / Fold change vs veh, PANK3 / RFU, SH3YL1 / Fold change vs veh, SH3YL1 / RFU, ZEB2 / Fold change vs veh, ZEB2 / RFU, NRIP1 / Fold change vs veh, NRIP1 / RFU, PTTG1IP / Fold change vs veh, PTTG1IP / RFU, CAPN2 / Fold change vs veh, CAPN2 / RFU, MED14 / Fold change vs veh, MED14 / RFU, SNORA58 / Fold change vs veh, SNORA58 / RFU, C1orf63 / Fold change vs veh, C1orf63 / RFU, LRRFIP1 / Fold change vs veh, LRRFIP1 / RFU, NDUFAF7 / Fold change vs veh, NDUFAF7 / RFU, SLC12A2 / Fold change vs veh, SLC12A2 / RFU, IBTK / Fold change vs veh, IBTK / RFU, ESF1 / Fold change vs veh, ESF1 / Fold change vs veh, TMEM50B / RFU, TAOK1 / Fold change vs veh, TAOK1 / RFU, ACBD3 / Fold change vs veh, ACBD3 / RFU, TMA16 / Fold change vs veh, TMA16 / RFU, RWDD3 / Fold change vs veh, RWDD3 / RFU, BCAT1 / Fold change vs veh, BCAT1 / RFU, EDEM3 / Fold change vs veh, EDEM3 / RFU, TMEM33 / Fold change vs veh, TMEM33 / RFU, WDR75 / Fold change vs veh, WDR75 / RFU, AHCTF1 / Fold change vs veh, AHCTF1 / RFU, TFRC / Fold change vs veh, TFRC / RFU, ZDHHC17 / Fold change vs veh, ZDHHC17 / RFU, NOM1 / Fold change vs veh, NOM1 / RFU, ARL8B / Fold change vs veh, ARL8B / RFU, ZBTB11 / Fold change vs veh, ZBTB11 / RFU, TAMM41 / Fold change vs veh, TAMM41 / RFU, KIAA1704 /// LOC100996395 / Fold change vs veh, KIAA1704 /// LOC100996395 / RFU, ING1 / Fold change vs veh, ING1 / RFU, TRMT61B / Fold change vs veh, TRMT61B / RFU, FUBP3 / Fold change vs veh, FUBP3 / RFU, TP53 / Fold change vs veh, TP53 / RFU, TNKS2 / Fold change vs veh, TNKS2 / RFU, ZFP14 / Fold change vs veh, ZFP14 / RFU, ACTR2 / Fold change vs veh, ACTR2 / RFU, PPP3R1 / Fold change vs veh, PPP3R1 / RFU, PIK3R1 / Fold change vs veh, PIK3R1 / RFU, HNRNPA1 / Fold change vs veh, HNRNPA1 / RFU, RNF170 / Fold change vs veh, RNF170 / RFU, ZNF28 / Fold change vs veh, ZNF28 / RFU, RNGTT / Fold change vs veh, RNGTT / RFU, OGT / Fold change vs veh, OGT / RFU, BRD1 / Fold change vs veh, BRD1 / RFU, MARS / Fold change vs veh, MARS / RFU, ZNF655 / Fold change vs veh, ZNF655 / RFU, FAHD1 / Fold change vs veh, FAHD1 / RFU, BDP1 / Fold change vs veh, BDP1 / RFU, LRRCC1 / Fold change vs veh, LRRCC1 / RFU, ARID1A / Fold change vs veh, ARID1A / RFU, ZNF146 / Fold change vs veh, ZNF146 / RFU, ZNF330 / Fold change vs veh, ZNF330 / RFU, GPN3 / Fold change vs veh, GPN3 / RFU, C9orf123 / Fold change vs veh, C9orf123 / RFU, N4BP2L2 / Fold change vs veh, N4BP2L2 / RFU, ARFIP1 / Fold change vs veh, ARFIP1 / RFU, FAM179B / Fold change vs veh, FAM179B / RFU, BCL10 / Fold change vs veh, BCL10 / RFU, UHRF1BP1L / Fold change vs veh, UHRF1BP1L / RFU, BET1 / Fold change vs veh, BET1 / RFU, CNOT2 / Fold change vs veh, CNOT2 / RFU, ZNF268 / Fold change vs veh, ZNF268 / Fold change vs veh, ZNF507 / RFU, DGCR2 / Fold change vs veh, DGCR2 / RFU, WDSUB1 / Fold change vs veh, WDSUB1 / Fold change vs veh, HSP90B1 /// MIR3652 / RFU, ADSS / Fold change vs veh, ADSS / RFU, GK / Fold change vs veh, GK / RFU, ZNF148 / Fold change vs veh, ZNF148 / RFU, TAF9 / Fold change vs veh, TAF9 / RFU, SLC1A5 / Fold change vs veh, SLC1A5 / RFU, SLMO2 / Fold change vs veh, SLMO2 / RFU, ABCC4 / Fold change vs veh, ABCC4 / RFU, LOC101060439 /// RAP1B / Fold change vs veh, LOC101060439 /// RAP1B / RFU, RFX7 / Fold change vs veh, RFX7 / RFU, GTPBP10 / Fold change vs veh, GTPBP10 / RFU, CNEP1R1 / Fold change vs veh, CNEP1R1 / RFU, BIVM-ERCC5 /// ERCC5 / Fold change vs veh, BIVM-ERCC5 /// ERCC5 / RFU, ILF3 / Fold change vs veh, ILF3 / RFU 11762660_at / Fold change /veh 11762660_at / RFU VCAN (11757783_s_at) / Fold change /veh VCAN (11757783_s_at) / RFU DDX43 (11728927_at) / Fold change /veh DDX43 (11728927_at) / RFU KRT8 (11758188_x_at) / Fold change /veh KRT8 (11758188_x_at) / RFU NKD1 (11759106_at) / Fold change /veh NKD1 (11759106_at) / RFU SRD5A1 (11742802_a_at) / Fold change /veh SRD5A1 (11742802_a_at) / RFU TPSAB1 /// TPSB2 (11721975_s_at) / Fold change /veh TPSAB1 /// TPSB2 (11721975_s_at) / RFU GSTM3 (11746129_a_at) / Fold change /veh GSTM3 (11746129_a_at) / RFU IL23R (11737362_x_at) / Fold change /veh IL23R (11737362_x_at) / RFU TMEM51 (11727254_a_at) / Fold change /veh TMEM51 (11727254_a_at) / RFU PIWIL2 (11732686_x_at) / Fold change /veh PIWIL2 (11732686_x_at) / RFU ORM1 (11744905_x_at) / Fold change /veh ORM1 (11744905_x_at) / RFU CCDC152 (11743942_at) / Fold change /veh CCDC152 (11743942_at) / RFU ECM1 (11717891_a_at) / Fold change /veh ECM1 (11717891_a_at) / RFU IL23R (11748794_a_at) / Fold change /veh IL23R (11748794_a_at) / RFU TNFAIP8L3 (11732012_x_at) / Fold change /veh TNFAIP8L3 (11732012_x_at) / RFU MBOAT4 (11741988_at) / Fold change /veh MBOAT4 (11741988_at) / RFU 11764193_at / Fold change /veh 11764193_at / RFU TMEM53 (11763286_at) / Fold change /veh TMEM53 (11763286_at) / RFU MAGEB2 (11727129_at) / Fold change /veh MAGEB2 (11727129_at) / RFU TMEM200A (11744735_a_at) / Fold change /veh TMEM200A (11744735_a_at) / RFU CCDC152 (11751479_a_at) / Fold change /veh CCDC152 (11751479_a_at) / RFU FAM211A (11726209_a_at) / Fold change /veh FAM211A (11726209_a_at) / RFU RGS16 (11746705_a_at) / Fold change /veh RGS16 (11746705_a_at) / RFU VCAN (11755009_s_at) / Fold change /veh VCAN (11755009_s_at) / RFU RHOB (11743442_s_at) / Fold change /veh RHOB (11743442_s_at) / RFU RGS16 (11720943_a_at) / Fold change /veh RGS16 (11720943_a_at) / RFU RGS16 (11720944_at) / Fold change /veh RGS16 (11720944_at) / RFU, VPS4B / Fold change vs veh, VPS4B / RFU, CREB1 / Fold change vs veh, CREB1 / RFU, DNAJC13 / Fold change vs veh, DNAJC13 / RFU, GNAQ / Fold change vs veh, GNAQ / RFU, CDK5R1 / Fold change vs veh, CDK5R1 / RFU, ZRANB3 / Fold change vs veh, ZRANB3 / RFU, CUL4A / Fold change vs veh, CUL4A / RFU, CCNY / Fold change vs veh, CCNY / RFU, UFL1 / Fold change vs veh, UFL1 / RFU, COG3 / Fold change vs veh, COG3 / RFU, DIAPH2 / Fold change vs veh, DIAPH2 / RFU, SKA2 / Fold change vs veh, SKA2 / RFU, AFF3 / Fold change vs veh, AFF3 / RFU, LMF1 / Fold change vs veh, LMF1 / RFU, IPO11 / Fold change vs veh, IPO11 / RFU, DFFB / Fold change vs veh, DFFB / RFU, FOXP1 / Fold change vs veh, FOXP1 / RFU, CARD8 / Fold change vs veh, CARD8 / RFU, STRN3 / Fold change vs veh, STRN3 / RFU, ADK / Fold change vs veh, ADK / RFU, RASSF2 / Fold change vs veh, RASSF2 / RFU, WIPF1 / Fold change vs veh, WIPF1 / RFU, LARP1B / Fold change vs veh, LARP1B / RFU, RASA1 / Fold change vs veh, RASA1 / RFU, RB1 / Fold change vs veh, RB1 / RFU, PPFIA1 / Fold change vs veh, PPFIA1 / RFU, MAT2A / Fold change vs veh, MAT2A / RFU, CCT5 / Fold change vs veh, CCT5 / RFU, WDR92 / Fold change vs veh, WDR92 / RFU, CUX1 / Fold change vs veh, CUX1 / RFU, TTC7A / Fold change vs veh, TTC7A / RFU, TMEM135 / Fold change vs veh, TMEM135 / RFU, DEPTOR / Fold change vs veh, DEPTOR / RFU, CPM / Fold change vs veh, CPM / RFU, DNAJB6 / Fold change vs veh, DNAJB6 / RFU, CACNA2D3 / Fold change vs veh, CACNA2D3 / RFU, DTX4 / Fold change vs veh, DTX4 / RFU, TFCP2 / Fold change vs veh, TFCP2 / RFU, GMCL1 /// GMCL1P1 / Fold change vs veh, GMCL1 /// GMCL1P1 / RFU, AEBP2 / Fold change vs veh, AEBP2 / RFU, SNHG1 /// SNORD22 /// SNORD25 /// SNORD26 /// SNORD27 /// SNORD28 /// SNORD29 /// SNORD31 / Fold change vs veh, SNHG1 /// SNORD22 /// SNORD25 /// SNORD26 /// SNORD27 /// SNORD28 /// SNORD29 /// SNORD31 / Fold change (Aza/veh), C12orf56 (ProbeSet 11735607_a_at) / Fold change (ACY-1035/veh), C12orf56 (ProbeSet 11735607_a_at) / Fold change (Aza/veh), FGFR1OP (ProbeSet 11751329_s_at) / Fold change (ACY-1035/veh), FGFR1OP (ProbeSet 11751329_s_at) / Fold change (Aza/veh), VPS36 (ProbeSet 11739960_a_at) / Fold change (ACY-1035/veh), VPS36 (ProbeSet 11739960_a_at) / RFU SYPL1 (11715823_x_at) / Fold change /veh SYPL1 (11715823_x_at) / RFU IGFBP7 (11715501_s_at) / Fold change /veh IGFBP7 (11715501_s_at) / RFU REEP3 (11722064_at) / Fold change /veh REEP3 (11722064_at) / RFU IGLL1 (11728026_x_at) / Fold change /veh IGLL1 (11728026_x_at): dose or concentration left out as unconfirmed
Details: ProbeSet 11749551_a_at; LIST B

Nc1ncn([C@@H]2O[C@H](CO)[C@@H](O)[C@H]2O)c(=O)n1 [azacitidine]
RFU, RNGTT: 56.67 RFU
